Type in all cases: cell-based
Assay [1] has as its target T1, Neuronal acetylcholine receptor; alpha9/alpha10 (Homo sapiens) (UniProt Q9UGM1+Q9GZZ6). In words: Antagonist activity at human alpha9alpha10 nAChR expressed in Xenopus laevis oocytes assessed as inhibition of ACh-induced current amplitude at -80 mV holding potential at 1 uM by two-electrode voltage clamp method. As to conditions: Oocyte. In general terms: Two-electrode voltage clamp is typically applied to oocytes expressing channels or transporters.

Assay [2] has as its target T1, Neuronal acetylcholine receptor; alpha9/alpha10 (Homo sapiens). In words: Antagonist activity at human alpha9alpha10 nAChR expressed in Xenopus laevis oocytes assessed as inhibition of ACh-induced current amplitude at -80 mV holding potential at 100 nM by two-electrode voltage clamp method. As to conditions: Oocyte.
For assay [3] the target is unchanged. In words: Antagonist activity at human alpha9alpha10 nAChR expressed in Xenopus laevis oocytes assessed as inhibition of ACh-induced current amplitude at -80 mV holding potential at 10 uM by two-electrode voltage clamp method. Conditions: Oocyte, filed as antagonist.

Activity calls are given as the source filed them. The rule behind the calls is not given here. Positions of bridges follow the written chain, without caps; N, C: chain ends. Residues, ends and D or L forms follow the SMILES beside them.

Broadly, the inhibition is how much of the control response was suppressed. As to `CC[C@H](C)[C@@H]1NC(=O)[C@H](CC(=O)O)NC(=O)[C@@H]2CCCN2C(=O)[C@H](Cc2cnc[nH]2)NC(=O)[C@H](CC(N)=O)NC(=O)[C@H](C(C)C)NC(=O)[C@H](CO)NC(=O)[C@@H]2CSSC[C@H](NC(=O)CN)C(=O)N[C@@H](CSSC[C@@H](C(N)=O)NC1=O)C(=O)N[C@@H](CO)C(=O)N[C@@H](Cc1cnc[nH]1)C(=O)N1CCC[C@H]1C(=O)N[C@@H](C)C(=O)N2` (H-GCCSHPACSVNHPDIC-NH2; disulfide 2-8, 3-16), the results for the inhibition in assay [1] and in assay [1] (filed as antagonist) were 20% and 40%, respectively. `CC[C@H](C)[C@@H]1NC(=O)[C@H](CC(=O)O)NC(=O)[C@@H]2CCCN2C(=O)[C@H](CC(N)=O)NC(=O)[C@H](CC(N)=O)NC(=O)[C@H](Cc2ccc(O)cc2)NC(=O)[C@H](CO)NC(=O)[C@@H]2CSSC[C@H](NC(=O)CN)C(=O)N[C@@H](CSSC[C@@H](C(N)=O)NC1=O)C(=O)N[C@@H](CO)C(=O)N[C@@H](Cc1cnc[nH]1)C(=O)N1CCC[C@H]1C(=O)N[C@@H](C)C(=O)N2` (H-GCCSHPACSYNNPDIC-NH2; disulfide 2-8, 3-16): the inhibition in assay [1] was 20%; in assay [2] it was 25%. As for `CC[C@H](C)[C@@H]1NC(=O)[C@H](CCC(=O)O)NC(=O)[C@@H]2CCCN2C(=O)[C@H](CC(N)=O)NC(=O)[C@H](CC(N)=O)NC(=O)[C@H](C(C)C)NC(=O)[C@H](CO)NC(=O)[C@@H]2CSSC[C@H](NC(=O)CN)C(=O)N[C@@H](CSSC[C@@H](C(N)=O)NC1=O)C(=O)N[C@@H](CO)C(=O)N[C@@H](Cc1cnc[nH]1)C(=O)N1CCC[C@H]1C(=O)N[C@@H](C)C(=O)N2` (H-GCCSHPACSVNNPEIC-NH2; disulfide 2-8, 3-16), the inhibition is 20% in assay [1] and 40% in assay [1] (filed as antagonist). Take `CC[C@H](C)[C@@H]1NC(=O)[C@H](CC(=O)O)NC(=O)[C@@H]2CCCN2C(=O)[C@H](CC(N)=O)NC(=O)[C@H](CC(N)=O)NC(=O)[C@H](C(C)C)NC(=O)[C@H](CO)NC(=O)[C@@H]2CSSC[C@H](NC(=O)CN)C(=O)N[C@@H](CSSC[C@@H](C(N)=O)NC1=O)C(=O)N[C@@H](C)C(=O)N[C@@H](Cc1cnc[nH]1)C(=O)N1CCC[C@H]1C(=O)N[C@@H](C)C(=O)N2` (H-GCCAHPACSVNNPDIC-NH2; disulfide 2-8, 3-16): the inhibition result in assay [3] was “Active”.

Source of the values: ChEMBL document CHEMBL5150017, “Mechanism of Action and Structure-Activity Relationship of α-Conotoxin Mr1.1 at the Human α9α10 Nicotinic Acetylcholine Receptor” (J Med Chem, 2022).
